# Assay results: patent US12371454B2, “Cyclic peptide compound having Kras inhibitory action” (priority 2019, dated 2025)
# Positions of bridges follow the written chain, without caps; N, C: chain ends. Non-standard residues stand in square brackets, D forms with d. Residues, ends and D or L forms follow the SMILES beside them. *: point of attachment. hPhe(3-Cl-4-CF3) = N[C@@H](CCc1ccc(C(F)(F)F)c(Cl)c1)C(=O)O; hPhe(3-F,4-CF3) = N[C@@H](CCc1ccc(C(F)(F)F)c(F)c1)C(=O)O; hPhe(4-CF3) = N[C@@H](CCc1ccc(C(F)(F)F)cc1)C(=O)O; NMePhe(3-CN) = CN[C@@H](Cc1cccc(C#N)c1)C(=O)O; NMePhe(4-Cl) = CN[C@@H](Cc1ccc(Cl)cc1)C(=O)O; NMePhe(4-Me) = CN[C@@H](Cc1ccc(C)cc1)C(=O)O; NMeAla(cPent) = CN[C@@H](CC1CCCC1)C(=O)O; NMeNva(5,5-F2) = CN[C@@H](CCC(F)F)C(=O)O; NMePhe(2-F) = CN[C@@H](Cc1ccccc1F)C(=O)O; NMeGly(cPent) = CN[C@H](C(=O)O)C1CCCC1; Phe(3-I) = N[C@@H](Cc1cccc(I)c1)C(=O)O; NMeCha = CN[C@@H](CC1CCCCC1)C(=O)O; NMeChg = CN[C@H](C(=O)O)C1CCCCC1; NMeF = CN[C@@H](Cc1ccccc1)C(=O)O; NMeI = CC[C@H](C)[C@H](NC)C(=O)O; NMeD = CN[C@@H](CC(=O)O)C(=O)O; CH2CONHtBu = CC(C)(C)NC(=O)C*; NMeL = CN[C@@H](CC(C)C)C(=O)O; NMeNva = CCC[C@H](NC)C(=O)O; NMeV = CN[C@H](C(=O)O)C(C)C; Trifluoroethyl = FC(F)(F)C*; d(β3hA) = C[C@@H](N)CC(=O)O; NMeS = CN[C@@H](CO)C(=O)O; NMeA = CN[C@@H](C)C(=O)O; NMeAib = CNC(C)(C)C(=O)O; Nle = CCCC[C@H](N)C(=O)O; Piperidide = C1CCN(*)CC1; Pra = C#CC[C@H](N)C(=O)O; Pyrrolidide = C1CCN(*)C1; dNMeA = CN[C@H](C)C(=O)O; Ac5c = NC1(C(=O)O)CCCC1; Aze = O=C(O)[C@@H]1CCN1; Aib = CC(C)(N)C(=O)O; Isopentyl = CC(C)CC*; Sar = CNCC(=O)O
# Biological target: T1, Kras and SOS1 (biotin-tagged human Kras loaded with GDP, His-tagged human SOS1) (Homo sapiens, UniProt P01116, G12D)
# T1 construct: made in house; host or cells: E. coli (stated for Kras only)
# Test: Protein-protein interaction inhibition between Kras and SOS1 (KrasGl2D-SOS PPI) using AlphaScreen
# Format: binding
# Settings: AlphaScreen; biotin-tagged human Kras loaded with GDP, His-tagged human SOS1; read-out: KRAS G12D-SOS PPI IC50
# Summary of the method: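 Energy transfer from nickel-chelate donor beads bound to His-SOS1 to streptavidin acceptor beads bound to biotin-Kras, expressed in E. coli and loaded with GDP after purification, was monitored. Donors were excited at 680 nm; singlet oxygen reaching acceptors gave emission read at 520-620 nm.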
# T1 sequence (P01116 1-188 isoform P01116-2 G12D): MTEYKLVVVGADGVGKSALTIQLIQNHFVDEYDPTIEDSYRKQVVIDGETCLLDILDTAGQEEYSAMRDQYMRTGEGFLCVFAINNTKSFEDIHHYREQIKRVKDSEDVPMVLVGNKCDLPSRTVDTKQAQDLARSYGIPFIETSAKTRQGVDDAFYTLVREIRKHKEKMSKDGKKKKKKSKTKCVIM
row,SMILES,IC50 [nM]
1,CC[C@H](C)[C@@H]1NC(=O)[C@H](C)N(C)C(=O)C[C@@H](C)NC(=O)[C@H](C2CCCC2)N(C)C(=O)C2(CCCC2)NC(=O)[C@@H]2CCCN2C(=O)[C@H](CCc2ccc(C(F)(F)F)c(Cl)c2)NC(=O)[C@@H](C)N(C)C(=O)[C@H](Cc2ccccc2)N(C)C(=O)[C@@H]2CCN2C(=O)[C@H](C)N(C)C1=O [Compound 671] (cyclo([Ac5c][NMeGly(cPent)][d(β3hA)][NMeA]I[NMeA][Aze][NMeF][dNMeA][hPhe(3-Cl-4-CF3)]P)),52
2,CCCC[C@@H]1NC(=O)[C@H](CCc2ccc(C(F)(F)F)c(Cl)c2)NC(=O)CN(C)C(=O)[C@H](CC2CCCC2)N(C)C(=O)[C@@H]2CCN2C(=O)[C@H](C)N(C)C(=O)[C@H]([C@@H](C)CC)NC(=O)[C@H](CC(C)C)N(C)C(=O)C[C@@H](C(=O)N2CCCCC2)N(C)C(=O)[C@H](CC(C)C)NC(=O)C(C)(C)N(C)C1=O [Compound 691] ([NMeL]I[NMeA][Aze][NMeAla(cPent)][Sar][hPhe(3-Cl-4-CF3)][Nle][NMeAib]L[NMeD]-Piperidide; lactam N-11),7.1
3,C#CC[C@@H]1NC(=O)[C@H](Cc2cccc(I)c2)NC(=O)CN(C)C(=O)[C@H](Cc2ccc(Cl)cc2)N(C)C(=O)CN(C)C(=O)CN(C)C(=O)[C@H]([C@@H](C)CC)NC(=O)[C@H](CC(C)C)N(C)C(=O)C[C@@H](C(=O)N2CCCCC2)N(C)C(=O)[C@H](CC(C)C)NC(=O)C(C)(C)N(C)C1=O [Compound 1426] ([NMeL]I[Sar][Sar][NMePhe(4-Cl)][Sar][Phe(3-I)][Pra][NMeAib]L[NMeD]-Piperidide; lactam N-11),48
4,CC[C@H](C)[C@@H]1NC(=O)[C@H](C)N(C)C(=O)C[C@@H](C)NC(=O)[C@H](C2CCCCC2)N(C)C(=O)C2(CCCC2)NC(=O)[C@@H]2CCCN2C(=O)[C@H](CCc2ccc(C(F)(F)F)c(Cl)c2)NC(=O)CN(C)C(=O)[C@H](CC2CCCCC2)N(C)C(=O)CN(C)C(=O)CN(C)C1=O [Compound 1688] (cyclo([Ac5c][NMeChg][d(β3hA)][NMeA]I[Sar][Sar][NMeCha][Sar][hPhe(3-Cl-4-CF3)]P)),24
5,CC[C@H](C)[C@@H]1NC(=O)[C@H](CC(C)C)N(C)C(=O)C[C@@H](C)NC(=O)[C@H](CC(C)C)N(C)C(=O)C(C)(C)NC(=O)[C@H](COCC(=O)NC(C)(C)C)N(C)C(=O)[C@H](CCc2ccc(C(F)(F)F)c(Cl)c2)NC(=O)CN(C)C(=O)[C@H](COCCC(C)C)N(C)C(=O)CN(C)C(=O)CN(C)C1=O [Compound 1467] (cyclo([Aib][NMeL][d(β3hA)][NMeL]I[Sar][Sar][NMeS](Isopentyl)[Sar][hPhe(3-Cl-4-CF3)][NMeS](CH2CONHtBu))),120
6,CC[C@H](C)[C@@H]1NC(=O)[C@H](CC(C)C)N(C)C(=O)C[C@@H](C(=O)N(C)C)N(C)C(=O)[C@H]([C@@H](C)CC)N(C)C(=O)C2(CCCC2)NC(=O)[C@H](Cc2cccc(C#N)c2)N(C)C(=O)[C@H](CCc2ccc(C(F)(F)F)c(Cl)c2)NC(=O)CN(C)C(=O)[C@H](Cc2ccc(C)cc2)N(C)C(=O)[C@@H]2CCN2C(=O)[C@H](C)N(C)C1=O [Compound 2002] ([NMeL]I[NMeA][Aze][NMePhe(4-Me)][Sar][hPhe(3-Cl-4-CF3)][NMePhe(3-CN)][Ac5c][NMeI][NMeD]-NMe2; lactam N-11),3
7,CC[C@H](C)[C@@H]1NC(=O)[C@H](CC(C)C)N(C)C(=O)C[C@@H](C(=O)N2CCCCC2)N(C)C(=O)[C@H](COCC(F)(F)F)N(C)C(=O)C2(CCCC2)NC(=O)[C@@H]2CCCN2C(=O)[C@H](CCc2ccc(C(F)(F)F)c(Cl)c2)NC(=O)CN(C)C(=O)[C@H](CC2CCCCC2)N(C)C(=O)CN(C)C(=O)CN(C)C1=O [Compound 208] ([NMeL]I[Sar][Sar][NMeCha][Sar][hPhe(3-Cl-4-CF3)]P[Ac5c][NMeS](Trifluoroethyl)[NMeD]-Piperidide; lactam N-11),120
8,"CC[C@H](C)[C@@H]1NC(=O)[C@H](CC(C)C)N(C)C(=O)C[C@@H](C(=O)N2CCCCC2)N(C)C(=O)[C@H](C2CCCCC2)N(C)C(=O)C2(CCCC2)NC(=O)[C@@H]2CCCN2C(=O)[C@H](CCc2ccc(C(F)(F)F)c(Cl)c2)NC(=O)CN(C)C(=O)[C@H](CCC(F)F)N(C)C(=O)CN(C)C(=O)CN(C)C1=O [Compound 1647] ([NMeL]I[Sar][Sar][NMeNva(5,5-F2)][Sar][hPhe(3-Cl-4-CF3)]P[Ac5c][NMeChg][NMeD]-Piperidide; lactam N-11)",3
9,CCCC[C@@H]1NC(=O)[C@H](Cc2cccc(I)c2)NC(=O)CN(C)C(=O)[C@H](Cc2ccc(Cl)cc2)N(C)C(=O)CN(C)C(=O)CN(C)C(=O)[C@H]([C@@H](C)CC)NC(=O)[C@H](CC(C)C)N(C)C(=O)C[C@@H](C(=O)N2CCCCC2)N(C)C(=O)[C@H](CC(C)C)NC(=O)[C@H](Cc2ccc(Cl)cc2)N(C)C1=O [Compound 934] ([NMeL]I[Sar][Sar][NMePhe(4-Cl)][Sar][Phe(3-I)][Nle][NMePhe(4-Cl)]L[NMeD]-Piperidide; lactam N-11),34
10,CC[C@H](C)[C@@H]1NC(=O)[C@H](CC(C)C)N(C)C(=O)C[C@@H](C)NC(=O)[C@H](C(C)C)N(C)C(=O)C2(CCCC2)NC(=O)[C@@H]2CCCN2C(=O)[C@H](CCc2ccc(C(F)(F)F)c(Cl)c2)NC(=O)CN(C)C(=O)[C@H](Cc2ccccc2F)N(C)C(=O)CN(C)C(=O)CN(C)C1=O [Compound 1585] (cyclo([Ac5c][NMeV][d(β3hA)][NMeL]I[Sar][Sar][NMePhe(2-F)][Sar][hPhe(3-Cl-4-CF3)]P)),43
11,CC[C@H](C)[C@@H]1NC(=O)[C@H](C)N(C)C(=O)C[C@@H](C)NC(=O)[C@H](CC(C)C)N(C)C(=O)[C@H](CC(C)C)N(C)C(=O)[C@@H]2CCCN2C(=O)[C@H](CCc2ccc(C(F)(F)F)cc2)NC(=O)CN(C)C(=O)[C@H](Cc2ccc(Cl)cc2)N(C)C(=O)CN(C)C(=O)CN(C)C1=O [Compound 902] (cyclo(I[Sar][Sar][NMePhe(4-Cl)][Sar][hPhe(4-CF3)]P[NMeL][NMeL][d(β3hA)][NMeA])),140
12,CC[C@H](C)[C@@H]1NC(=O)[C@H](C)N(C)C(=O)C[C@@H](C)NC(=O)[C@H](C2CCCC2)N(C)C(=O)C2(CCCC2)NC(=O)[C@@H]2CCCN2C(=O)[C@H](CCc2ccc(C(F)(F)F)c(Cl)c2)NC(=O)[C@@H](C)N(C)C(=O)[C@H](Cc2ccc(Cl)cc2)N(C)C(=O)CN(C)C(=O)CN(C)C1=O [Compound 1065] (cyclo([Ac5c][NMeGly(cPent)][d(β3hA)][NMeA]I[Sar][Sar][NMePhe(4-Cl)][dNMeA][hPhe(3-Cl-4-CF3)]P)),70
13,CCC[C@H]1C(=O)N[C@@H]([C@@H](C)CC)C(=O)N(C)CC(=O)N(C)CC(=O)N(C)[C@@H](CC2CCCCC2)C(=O)N(C)CC(=O)N[C@@H](CCc2ccc(C(F)(F)F)c(Cl)c2)C(=O)N2CCC[C@H]2C(=O)NC2(CCCC2)C(=O)N(C)[C@@H](C2CCCCC2)C(=O)N(C)[C@H](C(=O)N2CCCC2)CC(=O)N1C [Compound 2001] ([NMeNva]I[Sar][Sar][NMeCha][Sar][hPhe(3-Cl-4-CF3)]P[Ac5c][NMeChg][NMeD]-Pyrrolidide; lactam N-11),0.48
14,"CC(C)C[C@H]1C(=O)N[C@@H](C(C)C)C(=O)N(C)CC(=O)N(C)CC(=O)N(C)[C@@H](CC2CCCCC2)C(=O)N(C)CC(=O)N[C@@H](CCc2ccc(C(F)(F)F)c(F)c2)C(=O)N2CCC[C@H]2C(=O)NC2(CCCC2)C(=O)N(C)[C@@H](CC(C)C)C(=O)N[C@H](C)CC(=O)N1C [Compound 1493] (cyclo([Ac5c][NMeL][d(β3hA)][NMeL]V[Sar][Sar][NMeCha][Sar][hPhe(3-F,4-CF3)]P))",100
